“Also recorded” adds a separate entry of the source.
Legend:
[1] = biological target: T1, Nod2 (Homo sapiens, UniProt Q9HC29); experiment: Nod2-dependent NF-κB luciferase reporter activation in transfected HEK293T cells; format: cell-based; conditions: for activation of Nod2 (NF-κB-driven luciferase reporter): muramyl peptides 10 nM up to 250 nM, HEK293T cells expressing Nod2, 24 h
T1 construct: expressed in transfected cells; host or cells: HEK293T
Description: FIG. 1. Detection of MDP-derived muramyl peptides by Nod2. A, schematic representation of the muramyl peptides used in this study. B, Human HEK293 epithelial cells were transfected with several muramyl peptides (MDP, M-TriLys, Anh-M-TriLys, M-TetraLYS and Anh-M-TetraLYS) at the following concentrations: 10 nM (white bars), 50 nM (grey bars) or 250 nM (black bars) in the presence of an expression vector for Nod2 . The activity of a NF-κB-driven luciferase reporter gene was measured, and Nod2-dependent activation of the reporter gene in the presence of muramyl peptides was reported to the one obtained without stimulation with muramyl peptides. […] Experiments were performed three times with similar results.
In search for MDP-derived muramyl peptides that could stimulate the Nod2 signaling pathway, the inventors generated several molecules differing in the length of their peptidic moiety, including M-TriLys and M-TetraLys (FIG. 1A). These molecules were then tested for their ability to activate Nod2 using co-transfection assays in HEK293T epithelial cells and measuring NF-κB activity as a read-out (FIG. 1B). […] Here, a larger range of muramyl peptide concentration was used (10 nM up to 250 nM) to allow for the identification of even weak inducers of the Nod2 pathway.
HEK293T cells were cultured in DMEM containing 10% fetal calf serum. Prior to transfection, HEK293T cells were seeded into 24 well plates at a density of 1×10^5 cells/ml as described previously (26), MDP LD was from Calbiochem and reported to be 98% pure by TLC.
The expression plasmid for Nod2 has been previously described (27). The NF-κB luciferase reporter plasmid was from Stratagene. Transfections were carried out in […] cells as previously described (26).
Studies examining the synergistic activation of NF-κB by muramyl peptides in cells over expressing Nod2 were carried out as originally described by Inohara et al. (28). Briefly, HEK293T cells were transfected overnight with 10 ng of Nod2 plus 75 ng of NF-κB luciferase reporter plasmid. At the same time, muramyl peptides were added to cell culture medium and the synergistic NF-κB-dependent luciferase activation was then measured following 24 h of co-incubation. NF-κB-dependent luciferase assays were performed in duplicate and data represent at least 3 independent experiments.

[2] = tested on: PBMCs from healthy donors; experiment: Cytokine response of PBMCs from healthy donors (CTR); format: cell-based, human; conditions: 50 nM, overnight (18 hours)
Description: (§1) FIG. 2. Response to muramyl peptides of PBMCs from healthy donors (CTR), Crohn's disease patients without defects in Nod2 (Crohn's) or Crohn's disease patients homozygous for the frameshift mutation (Nod2 fs). IL-1β, TNF and IL-10 were measured from the cell culture medium. Intracellular IL-1α was measured from cell lysates. All muramyl peptides (all 50 nM) were added directly to the cell culture medium for 18 hours.
as §1, with “3.” for “2.”, “peptidoglycans” for “muramyl peptides”, “(Nod2fs).” for “(Nod2 fs).”, “at 1 μg/ml) and LPS (100 ng/ml)” for “50 nM)”
(§2) FIG. 5. Analysis of the synergistic activation of PBMCs by M-TriDAP plus either LPS or LTA. PBMCs from healthy donors (CTR), Crohn's disease patients without defects in Nod2 (Crohn's) or Crohn's disease patients homozygous for the frameshift mutation (Nod2 fs) were analyzed. Cells were stimulated either with M-TriDAP (MTP(DAP) on the figure), LPS or LTA alone or in combination; LPS+M-TriDAP or LTA+M-TriDAP with the agonists added simultaneously, IL-1β, TNF and IL-10 were measured from the cell culture medium. Intracellular IL-1α was measured from cell lysates, LPS (40 pg/ml), LTA (5 μg/ml) and M-TriDAP (50 nM) were added directly to the cell culture medium for 18 hours.
(§3) The six muramyl peptides characterized above (MDP, M-TriLys, M-TetraLys, anhydro-M-TriLys, anhydro-M-TetraLys and M-TriDAP) were used to stimulate PBMCs obtained from human blood. PBMCs from three groups of individuals were collected: healthy donors (CTR), Crohn's disease patients without Nod2 mutations (Crohn) and Crohn's disease patients carrying homozygous Nod2fs frameshift mutation (Nod2fs). […] IL-1β, IL-10 and TNFα were measured in the supernatant, while intracellular IL-1α was measured from cell lysates (FIG. 2). […]

[3] = tested on: PBMCs from Crohn's disease patients without Nod2 mutations; experiment: Cytokine response of PBMCs from Crohn's disease patients without Nod2 mutations; format: cell-based, human; conditions: PBMCs from non-Nod2 Crohn's disease patients; 50 nM; overnight (18 hours)
Description: as §1
as §1, with “3.” for “2.”, “peptidoglycans” for “muramyl peptides”, “(Nod2fs).” for “(Nod2 fs).”, “at 1 μg/ml) and LPS (100 ng/ml)” for “50 nM)”
as §2, §3

[4] = tested on: PBMCs from Nod2fs patients; experiment: Cytokine response of PBMCs from Crohn's disease patients homozygous for the Nod2fs frameshift mutation; format: cell-based, human; conditions: 50 nM, overnight (18 hours)
Description: as §1
as §1, with “3.” for “2.”, “peptidoglycans” for “muramyl peptides”, “(Nod2fs).” for “(Nod2 fs).”, “at 1 μg/ml) and LPS (100 ng/ml)” for “50 nM)”
as §2, §3

T1 sequence (Q9HC29 whole entry): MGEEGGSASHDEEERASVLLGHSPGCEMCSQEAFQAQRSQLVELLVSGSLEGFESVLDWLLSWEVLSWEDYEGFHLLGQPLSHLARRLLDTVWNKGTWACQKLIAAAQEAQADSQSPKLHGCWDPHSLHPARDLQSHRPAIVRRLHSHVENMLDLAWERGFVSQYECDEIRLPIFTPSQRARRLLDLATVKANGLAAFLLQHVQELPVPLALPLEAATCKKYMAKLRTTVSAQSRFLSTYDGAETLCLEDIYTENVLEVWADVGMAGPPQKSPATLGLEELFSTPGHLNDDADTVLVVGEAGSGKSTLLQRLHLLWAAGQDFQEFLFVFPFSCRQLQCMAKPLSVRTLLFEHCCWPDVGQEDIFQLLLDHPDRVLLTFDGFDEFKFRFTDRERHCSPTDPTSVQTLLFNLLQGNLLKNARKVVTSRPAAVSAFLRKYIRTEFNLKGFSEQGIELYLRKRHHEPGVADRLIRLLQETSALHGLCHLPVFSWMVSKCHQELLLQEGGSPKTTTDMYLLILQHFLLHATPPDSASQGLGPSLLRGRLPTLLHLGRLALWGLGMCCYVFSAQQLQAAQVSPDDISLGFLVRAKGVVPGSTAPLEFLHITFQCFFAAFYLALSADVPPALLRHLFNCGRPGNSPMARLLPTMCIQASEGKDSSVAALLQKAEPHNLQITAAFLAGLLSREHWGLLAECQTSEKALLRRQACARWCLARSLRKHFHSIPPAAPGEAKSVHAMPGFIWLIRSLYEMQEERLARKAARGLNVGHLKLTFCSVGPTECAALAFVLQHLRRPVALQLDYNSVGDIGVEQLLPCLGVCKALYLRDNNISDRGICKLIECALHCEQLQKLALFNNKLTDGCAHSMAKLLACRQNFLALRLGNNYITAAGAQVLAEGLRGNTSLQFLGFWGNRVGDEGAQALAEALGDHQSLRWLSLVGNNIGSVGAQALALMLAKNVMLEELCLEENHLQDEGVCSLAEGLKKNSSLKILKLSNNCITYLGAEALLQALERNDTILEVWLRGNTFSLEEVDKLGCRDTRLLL

Compound	activation of Nod2 (NF-κB-driven luciferase reporter) [1]	cytokine response (IL-1β, IL-10, TNFα, intracellular IL-1α) to muramyl peptides [2]	cytokine response (IL-1β, IL-10, TNFα, intracellular IL-1α) to muramyl peptides [3]	cytokine response (IL-1β, IL-10, TNFα, intracellular IL-1α) to muramyl peptides [4]	concentration at which activation of Nod2 was maximal ([1]; HEK293T co-transfection, NF-κB read-out, 10 pmoles per milliliter of culture medium)
diaminopimelic acid (DAP)-containing muramyl tripeptide [M-TriDAP]	failed to activate Nod2	efficiently stimulated; also recorded: globally as potent as MDP	efficiently stimulated; also recorded: globally as potent as MDP	failed to induce cytokine response; also recorded: unable to stimulate	–
CC(=O)N[C@H]1C(O)O[C@H](CO)[C@@H](O)[C@@H]1O[C@H](C)C(=O)N[C@@H](C)C(=O)N[C@H](CCC(=O)O)C(N)=O (mixture of isomers) [MDP, muramyl dipeptide]	activated Nod2 with similar efficiency	potent activators	still reacted	not stimulated	10 nM
M-TriLys	activated Nod2 with similar efficiency	potent activators	still reacted	not stimulated	–
